Measurements from a compilation of properties of binary mixtures (doi:10.1002/aic.14507).

Assay: xn = mol fraction of the nth substance listed
Conditions: 100 kPa

Row | viscosity (303 K, x1 = 0.5482) [mPa·s] | viscosity (313 K, x1 = 0.5482) [mPa·s] | viscosity (318 K, x1 = 0.5482) [mPa·s] | viscosity (323 K, x1 = 0.5482) [mPa·s] | viscosity (303 K, x1 = 0.4462) [mPa·s] | viscosity (303 K, x1 = 0.6298) [mPa·s] | viscosity (313 K, x1 = 0.0098) [mPa·s] | viscosity (313 K, x1 = 0.0219) [mPa·s] | viscosity (313 K, x1 = 0.037) [mPa·s] | viscosity (313 K, x1 = 0.1184) [mPa·s] | viscosity (313 K, x1 = 0.1728) [mPa·s] | viscosity (313 K, x1 = 0.4462) [mPa·s] | viscosity (313 K, x1 = 0.6298) [mPa·s] | viscosity (318 K, x1 = 0.4462) [mPa·s] | viscosity (318 K, x1 = 0.6298) [mPa·s] | viscosity (323 K, x1 = 0.4462) [mPa·s] | viscosity (323 K, x1 = 0.6298) [mPa·s] | Structure (SMILES)
1 | 42.67 | 28.9 | 24.3 | 20.63 | – | – | – | – | – | – | – | – | – | – | – | – | – | CCCCCCCCn1cc[n+](C)c1.F[B-](F)(F)F + O
2 | – | – | – | – | 17.21 | 35.74 | 0.819 | 0.971 | 1.24 | 2.753 | 3.908 | 12.64 | 24.64 | 11 | 20.86 | 9.66 | 17.88 | CCCC[n+]1ccn(C)c1.O=[N+]([O-])[O-] + O
